Results taken from patent US9273075B2, “Prodrugs of 1,4-benzodiazepinone compounds” (BRISTOL-MYERS SQUIBB COMPANY, priority 2012, dated 2016).
In brackets after ≈: the same amount, converted by molar mass. Read-outs that look alike come from different tables or passages of the source.

What was measured:
[1] = High Throughput Metabolic Stability Panel, mouse liver microsomes
Solution Stability Assay = type: physicochemical
Method: Acetonitrile Stock Solution: Acetonitrile Stock Solution of the prodrug was prepared by dissolving 1.5-2.0 mg of weighted compound in 5.0 mL of acetonitrile in a 5 mL volumetric flask.
pH 6.5 Buffer Working Solution: A pH 6.5 Buffer Working Solution of drug was prepared by adding 1.5 mL of the Acetonitrile Stock Solution to 3.5 mL of stability buffer (50 mM potassium phosphate, pH 6.5) in a 10 mL vial, and mixing. Using a 3 mL syringe, ˜3 mL of solution was withdrawn and filtered using the Gelman 0.45 μm syringe filter into a clean 1.5 mL LC vial. This filtered solution will was used to evaluate the prodrug degradation throughout the course of the study. Target concentration: 90-120 μg/mL (70% Aqueous: 30% Acetonitrile)
pH 4.0 Acidic Working Solution: A pH 4.0 Working Solution of drug was prepared by adding 1.5 mL of the Acetonitrile Stock Solution to 3.5 mL of stability buffer (50 mM sodium acetate, pH 4.0) in a 10 mL vial and mixing. Using a 3 mL syringe, ˜3 mL of solution was withdrawn and filtered using the Gelman 0.45 μm syringe filter into a clean 1.5 mL LC vial. This filtered solution was used to evaluate the prodrug degradation throughout the course of the study. Target concentration: 90-120 μg/mL (70% Aqueous: 30% Acetonitrile)
Experimental Methods: Following the sample preparation procedure described above a single sample (n=1) was prepared for each pH condition. The samples were then placed in an HPLC autosampler maintained at 37° C. and samples were analyzed over a 24 h period. Prodrug remaining (%) was reported relative to the initial peak area (t=0 h). In cases where a conversion to parent half-life could be calculated, a t1/2 was generated. Confirmation of the conversion to parent from the prodrug was obtained by LCMS and HPLC analysis of the final timepoint samples.
Typical LC parameters are shown below: • HPLC System: HP1100 Series, Hewlett Packard., Heated autosampler • Analytical column: Synergi 4 u Hydro C18, 4.6 mm×5.0 cm, PHENOMENEX® • Column temperature: 40° C. • Autosampler temp: 37° C. • Flow rate: 1.0 mL/min • Injection Volume: 10 μL • Mobile Phase: A: Acetonitrile • B: 0.1% Phosphoric acid in water • Run Time: 14.0 minutes Typical LCMS parameters are shown below: • LC-MS System: Surveyor HPLC system, ThermoFinnigan LCQ Deca XP Max (Ion trap) • Analytical column: Synergi 4 u Hydro C18, 4.6 mm×5.0 cm, PHENOMENEX® • Column temperature: 40° C. • Autosampler temp: 22° C. • Flow rate: 1.0 mL/min • Injection Volume: 5 μL • Mobile Phase: A: 95% Acetonitrile/5% 20 mM Ammonium Acetate • B: 5% Acetonitrile/95% 20 mM Ammonium Acetate LCQ Parameters: • Sheath Flow Rate: 81.64 • Aux/Sweep Flow Rate: 19.01 • Current (uA): 10.89 • Voltage (kV): 5.00 • Capillary (C): 348.10 • Capillary Voltage (V): 30.44

[2] = test system: TALL1 Human T-cell acute lymphoblastic leukemia; experiment: Human tumor xenograft in mice: TALL1; type: in vivo; settings: FIG. 1; dosed intravenously QD×3, weekly×3; Compound A 3 mg/kg; Example 12 1.5, 3, 6 mg/kg; active = TGI≧50%
[3] = Thermodynamic Equilibrium Aqueous Solubility Assay; type: physicochemical; settings: thermodynamic from solid
Method: Standards Preparation: The calibration standard was prepared by accurately weighing 0.5-0.7 mg of sample in 5 ml of methanol. If the material was not fully soluble in methanol, other solvents such as DMSO or mixed solvents were used.
Test Sample Preparation: An excess amount of powder prodrug was equilibrated with 1 mL of buffer (50 mM potassium phosphate, pH 6.5 and 50 mM sodium acetate, pH 4.0) in a 2 mL glass vial. The solution was sonicated and vortexed for ˜30 seconds. The vials were shaken at 300 rpm at room temperature for 24 hrs. The exact incubation time for a specific prodrug was based on the prior aqueous stability data. If the compound was stable in the buffer up to 24 hrs, then the solubility was measured after 24 hrs, otherwise kinetic solubility data was reported. The final saturated solution was then transferred to a 1.5 mL Eppendorf tube and centrifuged for ˜2 min. at 10000 rpms. The supernatant from the saturated solution was transferred to a glass HPLC vial and the solubility was analyzed by HPLC using a four point calibration curve.

[4] = High Throughput Metabolic Stability Panel, monkey microsomes; settings: control compound values (expected ranges), 10 minutes
[5] = High Throughput Metabolic Stability Panel, rat microsomes; settings: control compound values (expected ranges), 10 minutes
[6] = High Throughput Metabolic Stability Panel, dog microsomes; settings: control compound values (expected ranges), 10 minutes
[7] = potassium phosphate buffer with 30% acetonitrile, pH 6.5, read-out: Stability (t1/2, h) pH 6.5 (converted)
[8] = sodium acetate buffer with 30% acetonitrile, pH 4, read-out: Stability (t1/2, h) pH 4.0 (converted)
[9] = potassium phosphate buffer, pH 6.5, aqueous buffer, read-out: Solubility (mg/mL) pH 6.5
[10] = sodium acetate buffer, pH 4, aqueous buffer, read-out: Solubility (mg/mL) pH 4.0

NC(=O)[C@@H](CCC(F)(F)F)[C@@H](CCC(F)(F)F)C(=O)N[C@H]1N=C(c2ccccc2)c2ccccc2NC1=O [Compound B, (2R,3S)—N-((3S)-2-Oxo-5-phenyl-2,3-dihydro-1H-1,4-benzodiazepin-3-yl)-2,3-bis(3,3,3-trifluoropropyl)succinamide]
0.5 μM MsLM (% Remaining) ([1]; 0.5 μM compound, mouse liver microsomes, ten-minute incubation, NADPH): 86% | 0.5 μM HLM (% Remaining) (0.5 μM compound, human liver microsomes, ten-minute incubation, NADPH): 88%

CN1C(=O)[C@@H](NC(=O)[C@H](CCC(F)(F)F)[C@H](CCC(F)(F)F)C(=O)NSC[C@H](N)C(=O)O)N=C(c2ccccc2)c2ccccc21 [Example 12, S-(((2S,3R)-6,6,6-Trifluoro-3-(((3S)-1-methyl-2-oxo-5-phenyl-2,3-dihydro-1H-1,4-benzodiazepin-3-yl)carbamoyl)-2-(3,3,3-trifluoropropyl)hexanoyl)amino)-L-cysteine]
half-life (Solution Stability Assay; [7]): 251 h | half-life (Solution Stability Assay; [8]): 376 h | in vivo efficacy against TALL1, activity as defined by the tumor growth inhibition (TGI) [2]: active | solubility at 24 h [3, 9]: 0.63 mg/mL (≈ 932 µM) | solubility at 24 h [3, 10]: 0.82 mg/mL (≈ 1210 µM)

CN1CCN(CNC(=O)[C@@H](CCC(F)(F)F)[C@@H](CCC(F)(F)F)C(=O)N[C@H]2N=C(c3ccccc3)c3ccccc3N(C)C2=O)CC1 [Example 15, (2R,3S)—N-((3S)-1-Methyl-2-oxo-5-phenyl-2,3-dihydro-1H-1,4-benzodiazepin-3-yl)-N′-((4-methyl-1-piperazinyl)methyl)-2,3-bis(3,3,3-trifluoropropyl)succinamide]
half-life (Solution Stability Assay; [7]): > 500 h | half-life (Solution Stability Assay; [8]): > 500 h | solubility at 24 h [3, 9]: > 0.41 mg/mL | solubility at 24 h [3, 10]: 0.27 mg/mL (≈ 404 µM)

CN1C(=O)[C@@H](NC(=O)[C@H](CCC(F)(F)F)[C@H](CCC(F)(F)F)C(=O)NCN2CCCCC2)N=C(c2ccccc2)c2ccccc21 [Example 16, (2R,3S)—N-((3S)-1-Methyl-2-oxo-5-phenyl-2,3-dihydro-1H-1,4-benzodiazepin-3-yl)-N′-(1-piperidinylmethyl)-2,3-bis(3,3,3-trifluoropropyl)succinamide]
half-life (Solution Stability Assay; [7]): 16 h | half-life (Solution Stability Assay; [8]): 250 h | solubility at 24 h [3, 9]: 0.01 mg/mL (≈ 15.3 µM) | solubility at 24 h [3, 10]: 0.23 mg/mL (≈ 352 µM)

CN1C(=O)[C@@H](NC(=O)[C@H](CCC(F)(F)F)[C@H](CCC(F)(F)F)C(=O)NCN2CCC(N)CC2)N=C(c2ccccc2)c2ccccc21 [Example 17, (2S,3R)—N-((4-Amino-1-piperidinyl)methyl)-N′-((3S)-1-methyl-2-oxo-5-phenyl-2,3-dihydro-1H-1,4-benzodiazepin-3-yl)-2,3-bis(3,3,3-trifluoropropyl)succinamide]
half-life (Solution Stability Assay; [7]): 300 h | half-life (Solution Stability Assay; [8]): 250 h | solubility at 24 h [3, 9]: > 1.9 mg/mL | solubility at 24 h [3, 10]: 0.56 mg/mL (≈ 837 µM)

CN1C(=O)[C@@H](NC(=O)[C@H](CCC(F)(F)F)[C@H](CCC(F)(F)F)C(=O)NCN2CCC(N(C)C)CC2)N=C(c2ccccc2)c2ccccc21 [Example 18, (2S,3R)—N-((4-(Dimethylamino)-1-piperidinyl)methyl)-N′-((3S)-1-methyl-2-oxo-5-phenyl-2,3-dihydro-1H-1,4-benzodiazepin-3-yl)-2,3-bis(3,3,3-trifluoropropyl)succinamide]
half-life (Solution Stability Assay; [7]): > 500 h | half-life (Solution Stability Assay; [8]): > 500 h | solubility at 24 h [3, 9]: > 1.05 mg/mL | solubility at 24 h [3, 10]: 0.29 mg/mL (≈ 416 µM)

CN1C(=O)[C@@H](NC(=O)[C@H](CCC(F)(F)F)[C@H](CCC(F)(F)F)C(=O)NCN2CCC(O)CC2)N=C(c2ccccc2)c2ccccc21 [Example 19, (2S,3R)—N-((4-Hydroxy-1-piperidinyl)methyl)-N′-((3S)-1-methyl-2-oxo-5-phenyl-2,3-dihydro-1H-1,4-benzodiazepin-3-yl)-2,3-bis(3,3,3-trifluoropropyl)succinamide]
half-life (Solution Stability Assay; [7]): 56 h | half-life (Solution Stability Assay; [8]): > 500 h | solubility at 24 h [3, 9]: > 1.42 mg/mL | solubility at 24 h [3, 10]: 0.97 mg/mL (≈ 1450 µM)

CN1C(=O)[C@@H](NC(=O)[C@H](CCC(F)(F)F)[C@H](CCC(F)(F)F)C(=O)NCN2CCC(O)C2)N=C(c2ccccc2)c2ccccc21 (stereo partly drawn) [Example 20, (2S,3R)—N-((3-Hydroxy-1-pyrrolidinyl)methyl)-N′-((3S)-1-methyl-2-oxo-5-phenyl-2,3-dihydro-1H-1,4-benzodiazepin-3-yl)-2,3-bis(3,3,3-trifluoropropyl)succinamide]
half-life (Solution Stability Assay; [7]): 15 h | half-life (Solution Stability Assay; [8]): 97 h | solubility at 24 h [3, 9]: 0.39 mg/mL (≈ 595 µM) | solubility at 24 h [3, 10]: 0.43 mg/mL (≈ 656 µM)

CN1C(=O)[C@@H](NC(=O)[C@H](CCC(F)(F)F)[C@H](CCC(F)(F)F)C(=O)NCN2CCC(N(C)C)C2)N=C(c2ccccc2)c2ccccc21 (stereo partly drawn) [Example 21, (2S,3R)—N-((3-(Dimethylamino)-1-pyrrolidinyl)methyl)-N′-((3S)-1-methyl-2-oxo-5-phenyl-2,3-dihydro-1H-1,4-benzodiazepin-3-yl)-2,3-bis(3,3,3-trifluoropropyl)succinamide]
half-life (Solution Stability Assay; [7]): 376 h | half-life (Solution Stability Assay; [8]): 334 h | solubility at 24 h [3, 9]: 0.63 mg/mL (≈ 923 µM) | solubility at 24 h [3, 10]: 0.64 mg/mL (≈ 937 µM)

CN1C(=O)[C@@H](NC(=O)[C@H](CCC(F)(F)F)[C@H](CCC(F)(F)F)C(=O)NCN2CCCC2)N=C(c2ccccc2)c2ccccc21 [Example 22, (2R,3S)—N-((3S)-1-Methyl-2-oxo-5-phenyl-2,3-dihydro-1H-1,4-benzodiazepin-3-yl)-N′-(1-pyrrolidinylmethyl)-2,3-bis(3,3,3-trifluoropropyl)succinamide]
half-life (Solution Stability Assay; [7]): 7 h | solubility at 24 h [3, 9]: 0.03 mg/mL (≈ 46.9 µM) | solubility at 24 h [3, 10]: > 0.39 mg/mL

CCc1nn(CCCN2CCN(c3cccc(Cl)c3)CC2)c(=O)n1CCOc1ccccc1 [Nefazodone]
Average Percent Remaining ± SD, Mouse ([1]; control compound values (expected ranges), mouse microsomes, 10 minutes): 0.4 ± 0.3% | Average Percent Remaining ± SD, Human (control compound values (expected ranges), human microsomes, 10 minutes): 0.4 ± 0.4% | Average Percent Remaining ± SD, Monkey [4]: 0.6 ± 0.5% | Average Percent Remaining ± SD, Rat [5]: 0.7 ± 0.6% | Average Percent Remaining ± SD, Dog [6]: 0.4 ± 0.4%
